In one data set the test system is MRSA ATCC 43300. Conditions: n = 2. The procedure: (§1) A positive control of a row of just the bacteria and a negative control of only the medium were included for every plate tested.
(§2) The compounds along with standard antibiotics were serially diluted 2-fold across the 96-well plates. […] A sample of each culture was then diluted 40-fold in fresh MH broth (in presence and absence of Tween) and incubated at 37°C for 2 to 3 h.
For experiments in the presence of surfactant, 2% beractant (25 mg/ml) was added to the mid-log-phase cultures and mixed gently and added to all the 96-well plates. For experiments in the presence of serum, a mixture of 50% of human serum along with 50% MHB was prepared and used throughout the experiment.

In another data set the test system is E. faecalis ATCC 29212. Kind of data set: microbe, parasite or virus in culture. Conditions: Corning NBS; MHB +T80; n = 2. Here is the method: as §1, §2
The subject of data set [1] is S. aureus GISA NRS 2; ATCC 700698. Kind of data set: microbe, parasite or virus in culture. The note with it: Corning NBS; MHB -T80; n = 2. Here is the method: as §1, §2
In a further data set the test system is S. pyogenes ATCC 12344. The note with it: ATCC 12344. The procedure: as §1, §2
In another data set the test system is MRSA. Conditions: literature value; cited from earlier work. The source says:
TABLE 1 Literature MIC values for tested antibiotics | column: MIC (µg/ml) (reference[s]) / MRSA

For a further data set, the system named is S. aureus ATCC 29123. Conditions: cited from earlier work. Here is the method:
The majority of antibiotic stock solutions for testing are prepared in water, phosphate buffer, or pH-adjusted aqueous solution (106 out of 139 reported in CLSI M100 [see Table 6A, “Solvents and diluents for preparation of stock solutions of antimicrobial agents”]) ([3]). […] Furthermore, the CLSI reference MIC quality control range tabulated for dalbavancin an ...

The conditions of data set [2]: estimated; cited from earlier work. The source says:
Other assay additives can affect MIC values. […] This in turn translates into reduced ...

Values after ≈ are worked out from the molar mass of the structure shown. Like-named read-outs stand apart in the source and are kept apart here.

The half-life is the time in which the quantity being followed falls by half. For the compound `CN[C@H]1C(=O)N[C@@H]2Cc3ccc(cc3)Oc3cc4cc(c3O[C@@H]3O[C@H](C(=O)O)[C@@H](O)[C@H](O)[C@H]3NC(=O)CCCCCCCCC(C)C)Oc3ccc(cc3Cl)[C@@H](O)[C@@H]3NC(=O)[C@H](NC(=O)[C@@H]4NC(=O)[C@@H](NC2=O)c2cc(cc(O)c2Cl)Oc2cc1ccc2O)c1ccc(O)c(c1)-c1c(O[C@H]2O[C@H](CO)[C@@H](O)[C@H](O)[C@@H]2O)cc(O)cc1[C@@H](C(=O)NCCCN(C)C)NC3=O` [Dalbavancin, dalbavancin], the MIC is 4 µg/mL (≈ 2.2 µM) with MRSA ATCC 43300 (Corning flat TC plate, MHB −T80, no additive); 0.125 µg/mL in the data set with MRSA ATCC 43300 (Trek PS, MH + 2% LHB, 2% LS); 0.125 µg/mL with MRSA ATCC 43300 (Trek PS, MH + 2% LHB, no additive); 0.125 µg/mL (≈ 0.0688 µM) in the data set with E. faecalis ATCC 29212; 0.125 µg/mL (≈ 0.0688 µM) in data set [1]; not above 0.003 µg/mL against S. pyogenes ATCC 12344. Moreover, the MIC in the data set on S. aureus ATCC 29123 (CLSI-consistent value, 0.002% polysorbate 80) is 0.06 µg/mL (≈ 0.033 µM); with S. aureus ATCC 29123 (dilutions in contact with plastic for as little as 30 min before inoculation with surfactant-containing media), 2 to 8 µg/mL. Further, the “MIC (literature)” value with MRSA was 0.06 ([68], [69]) µg/ml. The half-life in data set [2] was 220 to 288 h.
